Source: patent publication US11458213B2, “Prostate-specific membrane antigen targeted high-affinity agents for endoradiotherapy of prostate cancer” (THE JOHNS HOPKINS UNIVERSITY, priority 2016, dated 2022)

How the values were obtained:
[1] = system: PSMA-negative PC3 flu cells; assay: Cell uptake in PSMA-negative PC3 flu cells; assay type: cell-based; settings: 4 h incubation, n = 3
PSMA+ PC3 PIP cells [2] = assay: Cell binding, uptake and internalization in PSMA+ PC3 PIP cells; assay type: cell-based; settings: for Cell surface / Cell uptake PSMA + PC3 PIP / Internalization (cell lysate): 4 h incubation, n = 3; for uptake in PSMA+ PC3 cells (in words): compared to ^177Lu-3
LogP octanol/water = assay type: physicochemical
[3] = target: prostate-specific membrane antigen (PSMA) (Homo sapiens, UniProt Q04609); assay: Binding affinities of the representative agents (PSMA)
PSMA+ PC3 PIP tumor [4] = assay: In vivo tissue biodistribution; settings: for tissue biodistribution PC-3 Flu: PC-3 Flu tumor; for tissue biodistribution PC-3 PIP: PC-3 PIP tumor
PSMA-PC3 flu cells = assay: Clonogenic assay in PSMA- PC3 flu cells; assay type: cell-based; settings: 10 μCi dose
PSMA+ PC3 PIP cells [5] = assay: Clonogenic assay in PSMA+ PC3 PIP cells; assay type: cell-based; settings: 10 μCi dose
PSMA+ PC3 PIP tumor [6] = assay: Treatment study (SPECT imaging and therapeutic effect) in tumor-bearing mice; assay type: in vivo
Protocol: A single dose of 3 mCi was injected via tail-vain injection in mice (n=10) bearing PSMA+ PC3 PIP tumor (size 3-5 mm). Saline was injected to another group of mice (n=10) for control study. Mice were monitored for body weight tumor size measure for two times per week. The control group of mice was euthanized after 4-8 weeks as the size of tumors over were >12 mm.

Chain of prostate-specific membrane antigen (PSMA) (Q04609 whole entry): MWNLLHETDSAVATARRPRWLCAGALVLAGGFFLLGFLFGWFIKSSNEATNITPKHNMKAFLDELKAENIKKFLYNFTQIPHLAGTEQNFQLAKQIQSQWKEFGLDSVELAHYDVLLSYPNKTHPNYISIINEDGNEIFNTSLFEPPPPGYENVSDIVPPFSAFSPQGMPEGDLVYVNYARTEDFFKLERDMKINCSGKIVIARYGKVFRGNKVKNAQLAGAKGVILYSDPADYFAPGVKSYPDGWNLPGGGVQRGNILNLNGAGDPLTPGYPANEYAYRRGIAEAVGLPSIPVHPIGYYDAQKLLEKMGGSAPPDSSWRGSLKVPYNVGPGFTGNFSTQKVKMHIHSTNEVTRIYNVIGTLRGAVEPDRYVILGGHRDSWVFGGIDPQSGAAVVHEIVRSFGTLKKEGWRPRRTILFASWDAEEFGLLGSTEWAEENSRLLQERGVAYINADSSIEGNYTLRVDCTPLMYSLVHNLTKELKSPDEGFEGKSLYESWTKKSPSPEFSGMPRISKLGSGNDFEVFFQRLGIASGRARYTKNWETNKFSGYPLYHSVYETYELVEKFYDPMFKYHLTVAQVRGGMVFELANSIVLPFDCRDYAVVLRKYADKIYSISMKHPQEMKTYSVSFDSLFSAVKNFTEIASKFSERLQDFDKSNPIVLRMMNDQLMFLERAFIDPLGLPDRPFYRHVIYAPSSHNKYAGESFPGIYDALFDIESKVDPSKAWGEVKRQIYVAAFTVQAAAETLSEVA

O=C([O-])CN1CCN(CC(=O)[O-])CCN(CC(=O)O)C(Cc2ccc(NC(=S)NCCCCC(=O)NCCCC[C@H](NC(=O)N[C@@H](CCC(=O)O)C(=O)O)C(=O)O)cc2)CN(CC(=O)[O-])CC1.[177Lu+3] (stereo partly drawn) [^177Lu-3]
Cell uptake PSMA − PC3 flu [1]: 0.05 percent incubated dose per one million cells
Cell surface (PSMA+ PC3 PIP cells [2]): 12.50 percent incubated dose per one million cells
Cell uptake PSMA + PC3 PIP (PSMA+ PC3 PIP cells [2]): 24.50 percent incubated dose per one million cells
Internalization (cell lysate) (PSMA+ PC3 PIP cells [2]): 8.75 percent incubated dose per one million cells

O=C(O)CC[C@H](NC(=O)N[C@@H](CCCCN(Cc1ccc(Br)cc1)C(=O)CCCCNC(=O)CN1CCN(CC(=O)O)CCN(CC(=O)O)CCN(CC(=O)O)CC1)C(=O)O)C(=O)O [Compound 2]
LogPoct/water (LogP octanol/water): −3.53
IC50 [3]: 0.64 nM
Ki [3]: 1.28 nM
binding affinity for PSMA (in words) [3]: higher binding affinity compared to 3

O=C(O)CC[C@H](NC(=O)N[C@@H](CCCCN(Cc1ccc(Br)cc1)C(=O)CCCCNC(=S)Nc1ccc(CC2CN(CC(=O)O)CCN(CC(=O)O)CCN(CC(=O)O)CCN2CC(=O)O)cc1)C(=O)O)C(=O)O (stereo partly drawn) [Compound 1]
LogPoct/water (LogP octanol/water): −3.0
IC50 [3]: 0.57 nM
Ki [3]: 1.15 nM
binding affinity for PSMA (in words) [3]: higher binding affinity compared to 3

O=C(O)CC[C@H](NC(=O)N[C@@H](CCCCNC(=O)CCCCNC(=S)Nc1ccc(CC2CN(CC(=O)O)CCN(CC(=O)O)CCN(CC(=O)O)CCN2CC(=O)O)cc1)C(=O)O)C(=O)O (stereo partly drawn) [Compound 3]
LogPoct/water (LogP octanol/water): −3.2
IC50 [3]: 2.16 nM
Ki [3]: 0.43 nM

O=C([O-])CN1CCN(CC(=O)[O-])CCN(CC(=O)O)C(Cc2ccc(NC(=S)NCCCCC(=O)N(CCCC[C@H](NC(=O)N[C@@H](CCC(=O)O)C(=O)O)C(=O)O)Cc3ccc(Br)cc3)cc2)CN(CC(=O)[O-])CC1.[177Lu+3] (stereo partly drawn) [^177Lu-1]
tissue biodistribution Bladder (PSMA+ PC3 PIP tumor [4]; 2 h): 3.39 ± 2.78 percent injected dose per gram
tissue biodistribution Bladder (PSMA+ PC3 PIP tumor [4]; 24 h): 0.31 ± 0.13 percent injected dose per gram
tissue biodistribution Bladder (PSMA+ PC3 PIP tumor [4]; 48 h): 0.12 ± 0.07 percent injected dose per gram
tissue biodistribution Bladder (PSMA+ PC3 PIP tumor [4]; 72 h): 0.06 ± 0.03 percent injected dose per gram
tissue biodistribution Blood (PSMA+ PC3 PIP tumor [4]; 2 h): 0.68 ± 0.25 percent injected dose per gram
tissue biodistribution Blood (PSMA+ PC3 PIP tumor [4]; 24 h): 0.01 ± 0.01 percent injected dose per gram
tissue biodistribution Blood (PSMA+ PC3 PIP tumor [4]; 48 h): 0.00 ± 0.01 percent injected dose per gram
tissue biodistribution Blood (PSMA+ PC3 PIP tumor [4]; 72 h): 0.00 ± 0.04 percent injected dose per gram
tissue biodistribution Fat (PSMA+ PC3 PIP tumor [4]; 2 h): 0.35 ± 0.10 percent injected dose per gram
tissue biodistribution Fat (PSMA+ PC3 PIP tumor [4]; 24 h): 0.08 ± 0.15 percent injected dose per gram
tissue biodistribution Fat (PSMA+ PC3 PIP tumor [4]; 48 h): 0.01 ± 0.01 percent injected dose per gram
tissue biodistribution Fat (PSMA+ PC3 PIP tumor [4]; 72 h): 0.06 ± 0.07 percent injected dose per gram
tissue biodistribution Heart (PSMA+ PC3 PIP tumor [4]; 2 h): 0.28 ± 0.08 percent injected dose per gram
tissue biodistribution Heart (PSMA+ PC3 PIP tumor [4]; 24 h): 0.02 ± 0.05 percent injected dose per gram
tissue biodistribution Heart (PSMA+ PC3 PIP tumor [4]; 48 h): 0.01 ± 0.00 percent injected dose per gram
tissue biodistribution Heart (PSMA+ PC3 PIP tumor [4]; 72 h): 0.01 ± 0.00 percent injected dose per gram
tissue biodistribution Kidney (PSMA+ PC3 PIP tumor [4]; 2 h): 87.10 ± 25.99 percent injected dose per gram
tissue biodistribution Kidney (PSMA+ PC3 PIP tumor [4]; 24 h): 1.65 ± 0.30 percent injected dose per gram
tissue biodistribution Kidney (PSMA+ PC3 PIP tumor [4]; 48 h): 1.02 ± 0.58 percent injected dose per gram
tissue biodistribution Kidney (PSMA+ PC3 PIP tumor [4]; 72 h): 0.62 ± 0.04 percent injected dose per gram
tissue biodistribution Liver (PSMA+ PC3 PIP tumor [4]; 2 h): 0.39 ± 0.13 percent injected dose per gram
tissue biodistribution Liver (PSMA+ PC3 PIP tumor [4]; 24 h): 0.11 ± 0.01 percent injected dose per gram
tissue biodistribution Liver (PSMA+ PC3 PIP tumor [4]; 48 h): 0.09 ± 0.02 percent injected dose per gram
tissue biodistribution Liver (PSMA+ PC3 PIP tumor [4]; 72 h): 0.07 ± 0.00 percent injected dose per gram
tissue biodistribution Lung (PSMA+ PC3 PIP tumor [4]; 2 h): 1.12 ± 0.33 percent injected dose per gram
tissue biodistribution Lung (PSMA+ PC3 PIP tumor [4]; 24 h): 0.06 ± 0.01 percent injected dose per gram
tissue biodistribution Lung (PSMA+ PC3 PIP tumor [4]; 48 h): 0.04 ± 0.01 percent injected dose per gram
tissue biodistribution Lung (PSMA+ PC3 PIP tumor [4]; 72 h): 0.04 ± 0.02 percent injected dose per gram
tissue biodistribution Muscle (PSMA+ PC3 PIP tumor [4]; 2 h): 0.68 ± 0.98 percent injected dose per gram
tissue biodistribution Muscle (PSMA+ PC3 PIP tumor [4]; 24 h): 0.01 ± 0.00 percent injected dose per gram
tissue biodistribution Muscle (PSMA+ PC3 PIP tumor [4]; 48 h): 0.00 ± 0.00 percent injected dose per gram
tissue biodistribution Muscle (PSMA+ PC3 PIP tumor [4]; 72 h): 0.02 ± 0.02 percent injected dose per gram
tissue biodistribution PC-3 Flu (PSMA+ PC3 PIP tumor [4]; 2 h): 0.39 ± 0.03 percent injected dose per gram
tissue biodistribution PC-3 Flu (PSMA+ PC3 PIP tumor [4]; 24 h): 0.10 ± 0.02 percent injected dose per gram
tissue biodistribution PC-3 Flu (PSMA+ PC3 PIP tumor [4]; 48 h): 0.05 ± 0.01 percent injected dose per gram
tissue biodistribution PC-3 Flu (PSMA+ PC3 PIP tumor [4]; 72 h): 0.06 ± 0.01 percent injected dose per gram
tissue biodistribution PC-3 PIP (PSMA+ PC3 PIP tumor [4]; 2 h): 55.04 ± 7.23 percent injected dose per gram
tissue biodistribution PC-3 PIP (PSMA+ PC3 PIP tumor [4]; 24 h): 40.61 ± 7.00 percent injected dose per gram
tissue biodistribution PC-3 PIP (PSMA+ PC3 PIP tumor [4]; 48 h): 27.00 ± 7.03 percent injected dose per gram
tissue biodistribution PC-3 PIP (PSMA+ PC3 PIP tumor [4]; 72 h): 24.90 ± 2.27 percent injected dose per gram
tissue biodistribution Pancreas (PSMA+ PC3 PIP tumor [4]; 2 h): 0.28 ± 0.09 percent injected dose per gram
tissue biodistribution Pancreas (PSMA+ PC3 PIP tumor [4]; 24 h): 0.02 ± 0.00 percent injected dose per gram
tissue biodistribution Pancreas (PSMA+ PC3 PIP tumor [4]; 48 h): 0.01 ± 0.01 percent injected dose per gram
tissue biodistribution Pancreas (PSMA+ PC3 PIP tumor [4]; 72 h): 0.01 ± 0.00 percent injected dose per gram
tissue biodistribution Salivary gland (Sal. Gl) (PSMA+ PC3 PIP tumor [4]; 2 h): 1.09 ± 0.08 percent injected dose per gram
tissue biodistribution Salivary gland (Sal. Gl) (PSMA+ PC3 PIP tumor [4]; 24 h): 0.09 ± 0.02 percent injected dose per gram
tissue biodistribution Salivary gland (Sal. Gl) (PSMA+ PC3 PIP tumor [4]; 48 h): 0.05 ± 0.03 percent injected dose per gram
tissue biodistribution Salivary gland (Sal. Gl) (PSMA+ PC3 PIP tumor [4]; 72 h): 0.05 ± 0.02 percent injected dose per gram
tissue biodistribution Sm. Int. (PSMA+ PC3 PIP tumor [4]; 2 h): 0.51 ± 0.32 percent injected dose per gram
tissue biodistribution Sm. Int. (PSMA+ PC3 PIP tumor [4]; 24 h): 0.03 ± 0.01 percent injected dose per gram
tissue biodistribution Sm. Int. (PSMA+ PC3 PIP tumor [4]; 48 h): 0.02 ± 0.00 percent injected dose per gram
tissue biodistribution Sm. Int. (PSMA+ PC3 PIP tumor [4]; 72 h): 0.02 ± 0.01 percent injected dose per gram
tissue biodistribution Spleen (PSMA+ PC3 PIP tumor [4]; 2 h): 3.76 ± 0.70 percent injected dose per gram
tissue biodistribution Spleen (PSMA+ PC3 PIP tumor [4]; 24 h): 0.15 ± 0.05 percent injected dose per gram
tissue biodistribution Spleen (PSMA+ PC3 PIP tumor [4]; 48 h): 0.08 ± 0.03 percent injected dose per gram
tissue biodistribution Spleen (PSMA+ PC3 PIP tumor [4]; 72 h): 0.08 ± 0.02 percent injected dose per gram
tissue biodistribution Stomach (PSMA+ PC3 PIP tumor [4]; 2 h): 0.87 ± 0.63 percent injected dose per gram
tissue biodistribution Stomach (PSMA+ PC3 PIP tumor [4]; 24 h): 0.04 ± 0.01 percent injected dose per gram
tissue biodistribution Stomach (PSMA+ PC3 PIP tumor [4]; 48 h): 0.05 ± 0.04 percent injected dose per gram
tissue biodistribution Stomach (PSMA+ PC3 PIP tumor [4]; 72 h): 0.04 ± 0.00 percent injected dose per gram
uptake in PSMA+ PC3 PIP tumor (in words) (PSMA+ PC3 PIP tumor [4]; mouse, in vivo): higher uptake and retention in PSMA+ PC3 PIP tumor uptake than ^177Lu-2
toxicity for PSMA-PC3 flu cells (in words) (PSMA-PC3 flu cells): no significant toxicity
Cell uptake PSMA − PC3 flu [1]: 0.09 percent incubated dose per one million cells
cell killing efficacy (PSMA+ PC3 PIP cells [5]): about 100%
internalized activity compared to ^177Lu-3 (PSMA+ PC3 PIP cells [2]): ~2 fold
Cell surface (PSMA+ PC3 PIP cells [2]): 27.68 percent incubated dose per one million cells
Cell uptake PSMA + PC3 PIP (PSMA+ PC3 PIP cells [2]): 42.60 percent incubated dose per one million cells
Internalization (cell lysate) (PSMA+ PC3 PIP cells [2]): 15.88 percent incubated dose per one million cells
uptake in PSMA+ PC3 cells (in words) (PSMA+ PC3 PIP cells [2]): higher uptake in PSMA+ PC3 cells compared to ^177Lu-3
remission of PSMA+ PC3 tumor bearing mice (PSMA+ PC3 PIP tumor [6]; mouse, in vivo): about 50%
body weight during treatment (in words) (PSMA+ PC3 PIP tumor [6]; single dose of 3 mCi): regained after 2 weeks
survival of mice in complete remission (PSMA+ PC3 PIP tumor [6]; single dose of 3 mCi): more than five months
therapeutic efficacy compared to the control group using saline (in words) (PSMA+ PC3 PIP tumor [6]; single dose of 3 mCi): decrease in tumor volume
mice showing complete eradication of tumors (PSMA+ PC3 PIP tumor [6]; single dose of 3 mCi via tail vein, n=10): 50%
number of mice with complete remission of the disease (PSMA+ PC3 PIP tumor [6]; single dose of 3 mCi, n=10): Five

O=C([O-])CN1CCN(CC(=O)[O-])CCN(CC(=O)NCCCCC(=O)N(CCCC[C@H](NC(=O)N[C@@H](CCC(=O)O)C(=O)O)C(=O)O)Cc2ccc(Br)cc2)CCN(CC(=O)[O-])CC1.[177Lu+3] [^177Lu-2]
Cell uptake PSMA − PC3 flu [1]: 0.12 percent incubated dose per one million cells
Cell uptake PSMA + PC3 PIP (PSMA+ PC3 PIP cells [2]): 40.6 percent incubated dose per one million cells
uptake in PSMA+ PC3 cells (in words) (PSMA+ PC3 PIP cells [2]): higher uptake in PSMA+ PC3 cells compared to ^177Lu-3
